# System: Mus musculus
# Assay: In vivo antitumor activity was measured as maximum tolerated dose in BDF1 male mice implanted with murine pancreatic adenocarcinoma (Panc 03) at dose schedule qd 4-9 administered sc
# Format: functional
row,Compound,MTD [mg/kg]
1,COc1cc(NS(C)(=O)=O)ccc1Nc1c2ccccc2nc2ccccc12 [AMSACRINE],48

# System: Mus musculus
# Assay: In vivo antitumor activity was measured as tumor growth inhibition in BDF1 male mice implanted with murine pancreatic adenocarcinoma (Panc 03) at dose schedule qd 4-9 administered sc
# Format: functional
row,Compound,T/C [%]
1,COc1cc(NS(C)(=O)=O)ccc1Nc1c2ccccc2nc2ccccc12 [AMSACRINE],0

# System: Mus musculus
# Assay: In vivo antitumor activity was measured as maximum tolerated dose in BDF1 male mice implanted with murine pancreatic adenocarcinoma (Panc 03) at dose schedule qd 3-9 administered sc
# Format: functional
row,Compound,MTD [mg/kg]
1,Cc1cc(-c2c(F)cc3c(=O)ccn(C4CC4)c3c2F)cc(C)n1,2410

# Molecular target: Nucleic Acid
# Assay: Compound was evaluated for its activity against bacterial DNA gyrase
# Format: nucleic-acid assay, Bacteria
row,Compound,EC50 [nM]
1,Cc1cc(-c2c(F)cc3c(=O)c(Cc4c(O)cccc4O)cn(C4CC4)c3c2F)cc(C)n1,140

# System: Mus musculus
# Assay: In vivo antitumor activity was measured as maximum tolerated dose in BDF1 male mice implanted with murine pancreatic adenocarcinoma (Panc 03) at dose schedule qd 3-11 administered iv
# Format: functional
row,Compound,MTD [mg/kg]
1,Cc1cc(-c2c(F)cc3c(=O)c(Cc4ccccc4O)cn(C4CC4)c3c2F)cc(C)n1,225

# System: Mus musculus
# Assay: In vivo antitumor activity was measured as tumor growth inhibition in BDF1 male mice implanted with murine pancreatic adenocarcinoma (Panc 03) at dose schedule qd 4-11 administered iv
# Format: functional
row,Compound,T/C [%]
1,Cc1cc(-c2c(F)cc3c(=O)c(Cc4c(O)cccc4O)cn(C4CC4)c3c2F)cc(C)n1,0

# System: Mus musculus
# Assay: In vivo antitumor activity was measured as tumor growth inhibition in BDF1 male mice implanted with murine pancreatic adenocarcinoma (Panc 03) at dose schedule qd 4,6,8,10,12,14,16 administered iv
# Format: functional
row,Compound,T/C [%]
1,COc1cc([C@@H]2c3cc4c(cc3[C@@H](O[C@@H]3O[C@@H]5CO[C@@H](C)O[C@H]5[C@H](O)[C@H]3O)[C@H]3COC(=O)[C@H]23)OCO4)cc(OC)c1O [ETOPOSIDE],3

# System: Mus musculus
# Assay: In vivo antitumor activity was measured as maximum tolerated dose in BDF1 male mice implanted with murine pancreatic adenocarcinoma (Panc 03) at dose schedule qd 3, bid 4-9; sc bid 10,11 administered iv
# Format: functional
row,Compound,MTD [mg/kg]
1,Cc1cc(-c2c(F)cc3c(=O)c(Cc4ncc[nH]4)cn(C4CC4)c3c2F)cc(C)n1,88

# System: Mus musculus
# Assay: In vivo antitumor activity was measured as maximum tolerated dose in BDF1 male mice implanted with murine pancreatic adenocarcinoma (Panc 03) at dose schedule qd 3,4,7,10 administered iv
# Format: functional
row,Compound,MTD [mg/kg]
1,Cc1cc(-c2c(F)cc3c(=O)c(Cc4ccc(O)cc4O)cn(C4CC4)c3c2F)cc(C)n1,20

# System: P388
# Assay: In vitro cytotoxicity against P388 mouse leukemia cells
# Format: functional, cell-based
row,Compound,IC50 [nM]
1,COc1ccc(Cc2cn(C3CC3)c3c(F)c(-c4cc(C)nc(C)c4)c(F)cc3c2=O)cc1,21000
2,Cc1cc(-c2c(F)cc3c(=O)c(Cc4c[nH]cn4)cn(C4CC4)c3c2F)cc(C)n1,390
3,Cc1cc(-c2c(F)cc3c(=O)c(Cc4ccccc4O)cn(C4CC4)c3c2F)cc(C)n1,670
4,Cc1cc(-c2c(F)cc3c(=O)c(Cc4cc(O)ccc4O)cn(C4CC4)c3c2F)cc(C)n1,360
5,Cc1cc(-c2c(F)cc3c(=O)c(Cc4c(O)cc(O)cc4O)cn(C4CC4)c3c2F)cc(C)n1,470
6,Cc1cc(-c2c(F)cc3c(=O)c(Cc4c(O)cccc4O)cn(C4CC4)c3c2F)cc(C)n1,250
7,Cc1cc(-c2c(F)cc3c(=O)c(Cc4ccc[nH]4)cn(C4CC4)c3c2F)cc(C)n1,930
8,Cc1cc(-c2c(F)cc3c(=O)c(Cc4ccc(O)cc4)cn(C4CC4)c3c2F)cc(C)n1,1500
9,Cc1cc(-c2c(F)cc3c(=O)c(Cc4cccc(O)c4O)cn(C4CC4)c3c2F)cc(C)n1,880
10,Cc1cc(-c2c(F)cc3c(=O)c(Cc4ccccc4N)cn(C4CC4)c3c2F)cc(C)n1,2100
11,COc1ccccc1Cc1cn(C2CC2)c2c(F)c(-c3cc(C)nc(C)c3)c(F)cc2c1=O,37000
12,Cc1cc(-c2c(F)cc3c(=O)c(Cc4ccc(Cl)cc4)cn(C4CC4)c3c2F)cc(C)n1,20000
13,Cc1cc(-c2c(F)cc3c(=O)c(Cc4ccc(O)cc4O)cn(C4CC4)c3c2F)cc(C)n1,210
14,Cc1cc(-c2c(F)cc3c(=O)c(Cc4cccc(O)c4)cn(C4CC4)c3c2F)cc(C)n1,2200
15,COc1cccc(Cc2cn(C3CC3)c3c(F)c(-c4cc(C)nc(C)c4)c(F)cc3c2=O)c1,20000
16,Cc1cc(-c2c(F)cc3c(=O)c(Cc4ncc[nH]4)cn(C4CC4)c3c2F)cc(C)n1,1100
17,Cc1cc(-c2c(F)cc3c(=O)c(Cc4ccccc4)cn(C4CC4)c3c2F)cc(C)n1,7300

# System: Mus musculus
# Assay: In vivo antitumor activity was measured as tumor growth inhibition in BDF1 male mice implanted with murine pancreatic adenocarcinoma (Panc 03) at dose schedule qd 3-12 administered sc
# Format: functional
row,Compound,T/C [%]
1,Cc1cc(-c2c(F)cc3c(=O)c(Cc4ccccc4)cn(C4CC4)c3c2F)cc(C)n1,>100
2,Cc1cc(-c2c(F)cc3c(=O)c(C(=O)O)cn(C4CC4)c3c2F)cc(C)n1 [WIN-57294],31

# System: Mus musculus
# Assay: In vivo antitumor activity was measured as tumor growth inhibition in BDF1 male mice implanted with murine pancreatic adenocarcinoma (Panc 03) at dose schedule qd 3,4,7,10 administered iv
# Format: functional
row,Compound,T/C [%]
1,Cc1cc(-c2c(F)cc3c(=O)c(Cc4ccc(O)cc4O)cn(C4CC4)c3c2F)cc(C)n1,73

# System: Mus musculus
# Assay: In vivo antitumor activity was measured as maximum tolerated dose in BDF1 male mice implanted with murine pancreatic adenocarcinoma (Panc 03) at dose schedule qd 4,6,8,10,12,14,16 administered iv
# Format: functional
row,Compound,MTD [mg/kg]
1,COc1cc([C@@H]2c3cc4c(cc3[C@@H](O[C@@H]3O[C@@H]5CO[C@@H](C)O[C@H]5[C@H](O)[C@H]3O)[C@H]3COC(=O)[C@H]23)OCO4)cc(OC)c1O [ETOPOSIDE],96

# System: Mus musculus
# Assay: In vivo antitumor activity was measured as maximum tolerated dose in BDF1 male mice implanted with murine pancreatic adenocarcinoma (Panc 03) at dose schedule qd 4-11 administered iv
# Format: functional
row,Compound,MTD [mg/kg]
1,Cc1cc(-c2c(F)cc3c(=O)c(Cc4c(O)cccc4O)cn(C4CC4)c3c2F)cc(C)n1,12

# System: Mus musculus
# Assay: In vivo antitumor activity was measured as tumor growth inhibition in BDF1 male mice implanted with murine pancreatic adenocarcinoma (Panc 03) at dose schedule qd 3-9 administered sc
# Format: functional
row,Compound,T/C [%]
1,Cc1cc(-c2c(F)cc3c(=O)ccn(C4CC4)c3c2F)cc(C)n1,>100

# System: Mus musculus
# Assay: In vivo antitumor activity was measured as tumor growth inhibition in BDF1 male mice implanted with murine pancreatic adenocarcinoma (Panc 03) at dose schedule qd 3-11 administered iv
# Format: functional
row,Compound,T/C [%]
1,Cc1cc(-c2c(F)cc3c(=O)c(Cc4ccccc4O)cn(C4CC4)c3c2F)cc(C)n1,5

# System: Mus musculus
# Assay: In vivo antitumor activity was measured as tumor growth inhibition in BDF1 male mice implanted with murine pancreatic adenocarcinoma (Panc 03) at dose schedule qd 3, bid 4-9; sc bid 10,11 administered iv
# Format: functional
row,Compound,T/C [%]
1,Cc1cc(-c2c(F)cc3c(=O)c(Cc4ncc[nH]4)cn(C4CC4)c3c2F)cc(C)n1,21

# System: Mus musculus
# Assay: In vivo antitumor activity was measured as maximum tolerated dose in BDF1 male mice implanted with murine pancreatic adenocarcinoma (Panc 03) at dose schedule qd 3-12 administered sc
# Format: functional
row,Compound,MTD [mg/kg]
1,Cc1cc(-c2c(F)cc3c(=O)c(Cc4ccccc4)cn(C4CC4)c3c2F)cc(C)n1,3749
2,Cc1cc(-c2c(F)cc3c(=O)c(C(=O)O)cn(C4CC4)c3c2F)cc(C)n1 [WIN-57294],600

# Molecular target: DNA topoisomerase II (Homo sapiens, UniProt P11388+Q02880)
# Assay: Inhibitory activity against HeLa cell Topoisomerase II
# Format: cell-based
row,Compound,EC50 [µM]
1,COc1ccc(Cc2cn(C3CC3)c3c(F)c(-c4cc(C)nc(C)c4)c(F)cc3c2=O)cc1,14
2,Cc1cc(-c2c(F)cc3c(=O)c(Cc4cccc5ccccc45)cn(C4CC4)c3c2F)cc(C)n1,> 210
3,Cc1cc(-c2c(F)cc3c(=O)c(Cc4c[nH]cn4)cn(C4CC4)c3c2F)cc(C)n1,1.6
4,Cc1cc(-c2c(F)cc3c(=O)c(Cc4ccccc4NC(=O)C(F)(F)F)cn(C4CC4)c3c2F)cc(C)n1,4.7
5,Cc1cc(-c2c(F)cc3c(=O)c(Cc4ccccc4O)cn(C4CC4)c3c2F)cc(C)n1,0.33
6,Cc1cc(-c2c(F)cc3c(=O)c(Cc4cc(O)ccc4O)cn(C4CC4)c3c2F)cc(C)n1,0.16
7,Cc1cc(-c2c(F)cc3c(=O)c(Cc4c(O)cc(O)cc4O)cn(C4CC4)c3c2F)cc(C)n1,0.098
8,Cc1cc(-c2c(F)cc3c(=O)c(Cc4c(O)cccc4O)cn(C4CC4)c3c2F)cc(C)n1,0.096
9,Cc1cc(-c2c(F)cc3c(=O)c(Cc4ccncc4)cn(C4CC4)c3c2F)cc(C)n1,9.1
10,Cc1cc(-c2c(F)cc3c(=O)c(Cc4ccc[nH]4)cn(C4CC4)c3c2F)cc(C)n1,5.1
11,Cc1cc(-c2c(F)cc3c(=O)c(Cc4ccccc4C(=O)O)cn(C4CC4)c3c2F)cc(C)n1,200
12,Cc1cc(-c2c(F)cc3c(=O)c(Cc4ccc(O)cc4)cn(C4CC4)c3c2F)cc(C)n1,1.2
13,Cc1cc(-c2c(F)cc3c(=O)c(Cc4ccccc4NS(C)(=O)=O)cn(C4CC4)c3c2F)cc(C)n1,3.3
14,Cc1cc(-c2c(F)cc3c(=O)c(Cc4ccc(N)cc4)cn(C4CC4)c3c2F)cc(C)n1,7.2
15,CC(=O)Nc1ccccc1Cc1cn(C2CC2)c2c(F)c(-c3cc(C)nc(C)c3)c(F)cc2c1=O,5.1
16,Cc1cc(-c2c(F)cc3c(=O)c(Cc4ccc(N(C)C)cc4)cn(C4CC4)c3c2F)cc(C)n1,> 210
17,Cc1cc(-c2c(F)cc3c(=O)c(Cc4cccc(O)c4O)cn(C4CC4)c3c2F)cc(C)n1,0.36
18,Cc1cc(-c2c(F)cc3c(=O)c(-c4ccccc4)cn(C4CC4)c3c2F)cc(C)n1,> 120
19,Cc1cc(-c2c(F)cc3c(=O)c(CC4CCCCC4)cn(C4CC4)c3c2F)cc(C)n1,> 230
20,Cc1cc(-c2c(F)cc3c(=O)c(Cc4ccccc4N)cn(C4CC4)c3c2F)cc(C)n1,2.1
21,Cc1cc(-c2c(F)cc3c(=O)c(Cc4ccccn4)cn(C4CC4)c3c2F)cc(C)n1,12
22,COc1ccccc1Cc1cn(C2CC2)c2c(F)c(-c3cc(C)nc(C)c3)c(F)cc2c1=O,14
23,Cc1cc(-c2c(F)cc3c(=O)c(Cc4ccc(Cl)cc4)cn(C4CC4)c3c2F)cc(C)n1,7.7
24,Cc1cc(-c2c(F)cc3c(=O)c(Cc4ccc(O)cc4O)cn(C4CC4)c3c2F)cc(C)n1,0.16
25,Cc1cc(-c2c(F)cc3c(=O)c(Cc4cccc(O)c4)cn(C4CC4)c3c2F)cc(C)n1,1.1
26,COc1cccc(Cc2cn(C3CC3)c3c(F)c(-c4cc(C)nc(C)c4)c(F)cc3c2=O)c1,14
27,CC(=O)Nc1ccc(Cc2cn(C3CC3)c3c(F)c(-c4cc(C)nc(C)c4)c(F)cc3c2=O)cc1,> 100
28,Cc1cc(-c2c(F)cc3c(=O)c(CCc4ccccc4)cn(C4CC4)c3c2F)cc(C)n1,> 120
29,Cc1cc(-c2c(F)cc3c(=O)c(Cc4ncc[nH]4)cn(C4CC4)c3c2F)cc(C)n1,1.1
30,Cc1cc(-c2c(F)cc3c(=O)c(Cc4ccccc4)cn(C4CC4)c3c2F)cc(C)n1,3.9
